The source of these data is ChEMBL document CHEMBL1201862, “PubChem BioAssay data set” (2004).

SMILES strings stand for the structures.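 Test compounds were applied to cells in 96-well plates for 48 hours at 5 doses. GI50 = concentration required for 50% inhibition of growth.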 Calls of active or inactive are those of the source. Rule as the data show it: active = GI50 up to about 1.1 µM and inactive = higher. Where only a bound is given, the exact number is not on record here.

Test systems include CCRF-CEM; EKVX; HCT-116; K562; M14; MOLT-4; Malme-3M; NCI-H23; NCI-H522; OVCAR-5; SF-295; SF-539; SN12C; SNB-19; SW-620; U-251; UACC-257; UO-31; PC-3.
What all share (test): NCI tumour cell line growth inhibition, 48 h

On to `O=C1C=C(O)C(=Cc2c(O)cc(O)cc2O)C(O)=C1`, for which the GI50 in the assay on CCRF-CEM, in the assay with EKVX, in the assay on HCT-116, with K562, in the assay with M14 and in the assay with MOLT-4 was > 100 µM (inactive) throughout. Besides, the GI50 in the assay with Malme-3M, in the assay with NCI-H23, with NCI-H522, in the assay on OVCAR-5, in the assay on SF-295 and in the assay on SF-539 was > 100 µM (inactive) in each case. The GI50 with SN12C, in the assay on SNB-19, with SW-620, with U-251, in the assay on UACC-257 and in the assay with UO-31 was > 100 µM (inactive) throughout.
Take `O=C1C/C(Br)=C\c2ccccc2-c2ccccc21`: the GI50 was 1.06 µM (active) in the assay on CCRF-CEM; 9.82 µM (inactive) with EKVX; 1.8 µM (inactive) in the assay with HCT-116; 1.06 µM (active) in the assay on K562; 2.07 µM (inactive) in the assay on M14; 2.16 µM (inactive) in the assay with MOLT-4. Also, the GI50 is 2.16 µM (inactive) in the assay with Malme-3M; 3.16 µM (inactive) in the assay with NCI-H23; 0.429 µM (active) in the assay with NCI-H522; 2.69 µM (inactive) with OVCAR-5; 4.98 µM (inactive) in the assay on SF-295; 2.16 µM (inactive) in the assay on SF-539. Moreover, the GI50 in the assay on SN12C is 2.04 µM (inactive); in the assay with SNB-19, 6.89 µM (inactive); in the assay with SW-620, 1.39 µM (inactive); in the assay on U-251, 2.51 µM (inactive); with UACC-257 it was 4.19 µM (inactive); in the assay with UO-31, 2.4 µM (inactive).
With `O=C(CCC(=O)Nc1ccc(Cl)cc1)CC(=O)c1ccc2ccccc2c1`, the GI50 in the assay on CCRF-CEM, in the assay on EKVX, in the assay with HCT-116, in the assay with K562, in the assay on M14 and with MOLT-4 was > 100 µM (inactive) throughout. In addition, the GI50 with Malme-3M, with NCI-H23, with NCI-H522, in the assay on OVCAR-5, in the assay with SF-295 and with SF-539 was > 100 µM (inactive) throughout. In addition, the GI50 with SN12C, in the assay with SNB-19, in the assay on SW-620, with U-251, with UACC-257 and in the assay on UO-31 was > 100 µM (inactive) each time.
As to `COc1cc2[nH]c(=O)c3cc(C)cc4c(Cl)nc(c1OC)c2c43`, the GI50 is 27.9 µM (inactive) in the assay with CCRF-CEM; 18.1 µM (inactive) with EKVX; 40.1 µM (inactive) in the assay on HCT-116; 67.8 µM (inactive) in the assay with K562; > 100 µM (inactive) with M14; 42.8 µM (inactive) in the assay with MOLT-4. In addition, the GI50 is 18 µM (inactive) with Malme-3M; 85.5 µM (inactive) in the assay with NCI-H23; 36.3 µM (inactive) in the assay with NCI-H522; > 100 µM (inactive) with OVCAR-5; > 100 µM (inactive) in the assay on PC-3; 43.7 µM (inactive) in the assay on SF-295. In addition, the GI50 with SF-539 is 29.9 µM (inactive); in the assay with SNB-19 it was 42 µM (inactive); in the assay with SW-620, > 100 µM (inactive); in the assay with U-251, 38.6 µM (inactive); in the assay with UACC-257, > 100 µM (inactive); in the assay with UO-31, > 100 µM (inactive).
For the molecule `COC(=O)c1nn(-c2ccccc2)c(=O)cc1N=[N+]=[N-]`, the GI50 with CCRF-CEM, in the assay on EKVX, with HCT-116, in the assay with K562, with M14 and in the assay with MOLT-4 was > 100 µM (inactive) throughout. Besides, the GI50 in the assay with Malme-3M, with NCI-H23, in the assay with NCI-H522, with OVCAR-5, with SF-295 and in the assay on SF-539 was > 100 µM (inactive) in each case. In addition, the GI50 in the assay with SN12C, with SNB-19, in the assay with SW-620, in the assay on U-251, in the assay with UACC-257 and with UO-31 was > 100 µM (inactive) in each case.
For the molecule `C1CSCCSCCCSC2CCCCC2SC1` (configuration not stated), the GI50 in the assay with CCRF-CEM was > 100 µM (inactive); in the assay on EKVX, > 100 µM (inactive); with HCT-116 it was > 100 µM (inactive); with K562, 45 µM (inactive); in the assay with M14, > 100 µM (inactive); in the assay on MOLT-4, 26 µM (inactive). Also, the GI50 is 80.5 µM (inactive) in the assay on NCI-H23; > 100 µM (inactive) in the assay with NCI-H522; > 100 µM (inactive) in the assay with OVCAR-5; 68.2 µM (inactive) with PC-3; > 100 µM (inactive) with SF-295; > 100 µM (inactive) in the assay with SF-539. For the same molecule, the GI50 with SN12C, in the assay with SNB-19, with SW-620, in the assay with U-251, in the assay with UACC-257 and in the assay with UO-31 was > 100 µM (inactive) throughout.
Turning to `O=C1NC2=C(CCCCC/C2=N\O)C12CCCCCC2`, the GI50 in the assay on CCRF-CEM, with EKVX, with HCT-116, in the assay on K562, in the assay on M14 and in the assay with MOLT-4 was > 100 µM (inactive) each time. In addition, the GI50 with Malme-3M, in the assay on NCI-H23, with NCI-H522, with OVCAR-5, in the assay on SF-295 and with SF-539 was > 100 µM (inactive) in each case. Further, the GI50 with SN12C, in the assay with SNB-19, in the assay with SW-620, in the assay on U-251, with UACC-257 and in the assay with UO-31 was > 100 µM (inactive) each time.
`C/C(=C1/CCCC2(N=NCC2c2ccccc2)C1=O)c1ccccc1` (configuration not stated): the GI50 with CCRF-CEM was 19.6 µM (inactive); in the assay on EKVX it was 28.3 µM (inactive); with HCT-116, 18.7 µM (inactive); with K562, 12 µM (inactive); in the assay with M14 it was 13.8 µM (inactive); in the assay with MOLT-4, 14.4 µM (inactive). The GI50 in the assay on Malme-3M was 21 µM (inactive); in the assay on NCI-H23 it was 16.6 µM (inactive); in the assay with NCI-H522 it was 14.8 µM (inactive); with OVCAR-5, 36 µM (inactive); in the assay on SF-295, 30.9 µM (inactive); with SF-539, 41.2 µM (inactive). The GI50 in the assay with SN12C is 40.5 µM (inactive); in the assay on SNB-19, 66.4 µM (inactive); in the assay on SW-620 it was 69.8 µM (inactive); with U-251 it was 23.8 µM (inactive); in the assay on UACC-257 it was 22.1 µM (inactive); with UO-31, 20.9 µM (inactive).
Turning to `Cn1c(=O)oc2cc(C(O)CN3CCN(Cc4ccccn4)CC3)c(Cl)cc21` (configuration not stated), the GI50 in the assay on CCRF-CEM, in the assay with EKVX, in the assay with HCT-116, with K562, in the assay with M14 and with MOLT-4 was > 100 µM (inactive) in each case. The GI50 with Malme-3M, in the assay on NCI-H23, in the assay with NCI-H522, in the assay with OVCAR-5, in the assay with PC-3 and with SF-295 was > 100 µM (inactive) throughout. For the same molecule, the GI50 in the assay with SF-539, with SN12C, with SNB-19, in the assay with SW-620, in the assay on U-251 and with UACC-257 was > 100 µM (inactive) each time. The GI50 with UO-31 is > 100 µM (inactive).
As for `O=c1[nH]c(=O)n(C2CC(O)C(COP(=O)(O)OC3CC(n4cc(F)c(=O)[nH]c4=O)OC3COP(=O)(O)OC3CC(n4cc(F)c(=O)[nH]c4=O)OC3COP(=O)(O)OC3CC(n4cc(F)c(=O)[nH]c4=O)OC3COP(=O)(O)OC3CC(n4cc(F)c(=O)[nH]c4=O)OC3COP(=O)(O)OC3CC(n4cc(F)c(=O)[nH]c4=O)OC3COP(=O)(O)OC3CC(n4cc(F)c(=O)[nH]c4=O)OC3COP(=O)(O)OC3CC(n4cc(F)c(=O)[nH]c4=O)OC3COP(=O)(O)OC3CC(n4cc(F)c(=O)[nH]c4=O)OC3COP(=O)(O)OC3CC(n4cc(F)c(=O)[nH]c4=O)OC3CO)O2)cc1F` (configuration not stated), the GI50 is 0.0109 µM (active) with HCT-116; 2.36 µM (inactive) in the assay with K562; < 0.005 µM (active) in the assay on M14; 0.0052 µM (active) with MOLT-4; 0.0502 µM (active) with NCI-H23; 0.015 µM (active) in the assay with NCI-H522. The GI50 in the assay with PC-3 is 0.0767 µM (active); in the assay on SF-295, < 0.005 µM (active); in the assay on SF-539, < 0.005 µM (active); in the assay on SN12C, 0.00828 µM (active); in the assay with SNB-19, 0.169 µM (active); in the assay with SW-620 it was > 50 µM (inactive). Besides, the GI50 in the assay with U-251 is 0.115 µM (active); in the assay on UACC-257, 0.578 µM (active); in the assay on UO-31, < 0.005 µM (active).
On to `Clc1ccc(COC(Cn2ccnc2)c2ccc(Cl)cc2Cl)c(Cl)c1` (configuration not stated) [MICONAZOLE NITRATE], for which the GI50 in the assay on CCRF-CEM was 5.82 µM (inactive); in the assay with EKVX it was 10.5 µM (inactive); in the assay on HCT-116, 5.3 µM (inactive); in the assay on K562, 3.75 µM (inactive); in the assay with M14, 10.6 µM (inactive); in the assay on MOLT-4, 3.36 µM (inactive). Also, the GI50 in the assay with Malme-3M was 12.5 µM (inactive); in the assay with NCI-H23, 8.15 µM (inactive); in the assay with NCI-H522, 8.2 µM (inactive); in the assay with OVCAR-5, 12.9 µM (inactive); in the assay with PC-3 it was 5.7 µM (inactive); in the assay with SF-295, 10.8 µM (inactive). The GI50 in the assay on SF-539 is 14.6 µM (inactive); in the assay with SN12C it was 7.96 µM (inactive); with SNB-19, 15.9 µM (inactive); with SW-620, 12.8 µM (inactive); with U-251, 11 µM (inactive); in the assay on UACC-257, 11 µM (inactive). The GI50 with UO-31 was 2.94 µM (inactive).
